Experimental data from article PMC7692187, “Rapid In Vivo Validation of HDAC Inhibitor-Based Treatments in Neuroblastoma Zebrafish Xenografts” (Pharmaceuticals, 2020).

Experiments:
[1] = tested on: cleaved caspase-3; assay: IHC staining for cleaved caspase-3 in SK-N-BE(2)-C zebrafish xenografts; type: in vivo, human; conditions: 48 h exposure, compared to solvent-treated control
Description: (§1) Due to this relatively short treatment duration (48 h), the apoptosis induction of the combination therapy is predominant over the antiproliferative effect.
(§2) Left panel: representative images of sections stained against cleaved caspase-3. […] The number of positive cells was calculated as the ratio of positive to total cells counted, relative to solvent. […] (b) Left panel: representative images of sections stained against phospho-histone H3, a marker specific for cells undergoing mitosis. […] The number of positive cells (%) was calculated as the ratio of positive to total cells counted.
(§3) Following fixation (24 h at 4 °C) in Special Fixative for Anatomy and Histology (Morphisto, Frankfurt am Main, Germany), xenografted zebrafish larvae were transferred to embedding cassettes equipped with biopsy pads, dehydrated, and infiltrated with paraffin. […] FIJI software and a macro program were employed for quantitative analysis of the xenograft slides, while the analysis of slides obtained from neuroblastoma patients was carried out manually. All quantitative analyses were performed in a blinded fashion on the xenograft slides (five tissue sections per zebrafish larva), which were obtained from at least two xenotransplantation replicates.

[2] = tested on: xenografted tumor cells; assay: Dose response in zebrafish xenografts: relative IC50 from the change in tumor volume; type: in vivo, human; conditions: Danio rerio, compared to solvent, drug applied to surrounding water, n = 3–5 fish per concentration
Description: (§4) To determine optimal drug concentrations, larvae bearing xenografted tumor cells were incubated with increasing drug concentrations 24 h post implantation (hpi), ranging from the concentrations used in previous cell culture experiments to the MTD(larvae) (Figure 2a). […] Using these concentrations, we evaluated whether HDACis were able to reach their specific enzymatic targets.
(§5) Right: representative images of immunohistochemical staining (c) Left: quantification of staining for acetylated histone H3. Right: representative images of immunohistochemical staining.
(§6) For treatment, larvae were incubated in freshly prepared buffer solution supplemented with 0.2 mM PTU, containing the drug of interest at increasing concentrations. Drug-containing solutions were administered at the beginning of the experiment and were not replaced during the incubation period. Solvent control was applied in the same manner as the drug treatments.

[3] = tested on: phospho-histone H3; assay: IHC staining for phospho-histone H3 (pHH3) in SK-N-BE(2)-C zebrafish xenografts; type: in vivo, human; conditions: 48 h exposure; solvent-treated 47%
Description: as §1, §2, §3

[4] = tested on: zebrafish larvae; assay: Toxicity test: three-day treatment of fish larvae without injection of tumor cells; type: in vivo, zebrafish (Danio rerio); conditions: three-day incubation time at 34 °C, drug in buffer
Description: as §6

[5] = tested on: SK-N-BE(2)-C cells; assay: Doxorubicin accumulation in engrafted tumor cells and zebrafish tissues; type: in vivo, human; conditions: tubastatin A 50 µM with doxorubicin 110 ng/mL, 48 h, relative to doxorubicin alone
Description: Doxorubicin has an intrinsic fluorescence due to the presence of a hydroxy-substituted anthraquinone chromophore.
(b,c) Representative images (b) and quantification (c) of zebrafish larvae engrafted with Hoechst stained and doxorubicin-treated SK-N-BE(2)-C cells. Larvae, except of unstained larvae, were exposed for 48 h to doxorubicin (red fluorescence) and tubastatin A or solvent. Red fluorescence of doxorubicin was visualized by confocal microscopy and normalized to tumor area. Results are presented as log2 fold change (FC) relative to doxorubicin alone. […] One-way ANOVA with Tukey’s multiple comparison test, scale bar = 50 µm.
SK-N-BE(2)-C cells were incubated with Hoechst nucleic acid dye (Thermo Fisher Scientific) at a concentration of 10 µg/mL for 30 min at 37 °C. […]
Zebrafish larvae engrafted with Hoechst-stained SK-N-BE(2)-C cells were exposed to solvent, doxorubicin, or doxorubicin combined with tubastatin A for 48 h. Red fluorescence of doxorubicin was visualized by confocal microscopy. Doxorubicin has an intrinsic fluorescence due to the presence of a hydroxy-substituted anthraquinone chromophore, with typical excitation and emission maxima in the range of 500 nm and 552–585 nm, respectively. Total fluorescence intensity in the tumor area (determined by nuclear staining) was defined as that above the threshold set by the solvent group and was quantified using a macro program.

[6] = tested on: acetylated α-tubulin (substrate of HDAC6); assay: IHC staining for acetylated α-tubulin in SK-N-BE(2)-C zebrafish xenografts; type: in vivo, human; conditions: 50 µM, 48 h, SK-N-BE(2)-C xenografts, versus solvent
Description: as §4, §5
(§7) Following fixation (24 h at 4 °C) in Special Fixative for Anatomy and Histology (Morphisto, Frankfurt am Main, Germany), xenografted zebrafish larvae were transferred to embedding cassettes equipped with biopsy pads, dehydrated, and infiltrated with paraffin. Briefly, fixed larvae were dehydrated using Leica ASP300S tissue processor (Leica Biosystems, Wetzlar, Germany) through incubation in aqueous solutions of increasing ethanol concentration (1 h in 50% ethanol, 2 h in 70% ethanol, 2 h in 80% ethanol, 1 h in 96% ethanol, 3 h in absolute ethanol) and thereafter incubated with xylene for 5 h. Next, samples were transferred to liquid paraffin at 60 °C and allowed to infiltrate for 5 h.

[7] = tested on: acetylated histone H3 (substrate of HDAC1–3); assay: IHC staining for acetylated histone H3 in SK-N-BE(2)-C zebrafish xenografts; type: in vivo, human; conditions: 48 h exposure at IC50 concentrations (tubastatin A 50 µM), SK-N-BE(2)-C xenografts
Description: as §4, §5, §7

Compound | number of cells positive for cleaved caspase-3 [1] | IC50 ([2]; 48 h treatment) | average number of tumor cells per slide positive for pHH3 [3] | Maximum Tolerated Dose (MTD) [4] | IC50 ([2]; 48 h treatment from 24 hpi) | doxorubicin accumulation in zebrafish tissues and engrafted tumor cells [5] | increase of acetylated α-tubulin [6] | cells stained positive for ac-histone H3 [7]
COc1cccc2c1C(=O)c1c(O)c3c(c(O)c1C2=O)C[C@@](O)(C(=O)CO)C[C@@H]3O[C@H]1C[C@H](N)[C@H](O)[C@H](C)O1 [doxorubicin] | increased | 0.11 µg/mL | 38% | 500 ng/mL | – | – | – | –
Cc1[nH]c2ccccc2c1CCNCc1ccc(/C=C/C(=O)NO)cc1 [panobinostat] | – | – | – | 1 µM | 0.2 µM | – | – | –
CN1CCc2c(c3ccccc3n2Cc2ccc(C(=O)NO)cc2)C1 [tubastatin A] | – | – | – | 200 µM | 50 µM | increased | 5 fold | not acetylated H3
O=C(CCCCCCC(=O)Nc1ccccc1)NO [vorinostat] | increased | – | 30% | 100 µM | – | – | – | –
